Assay results reported in publication PMC5587909, “Inhibition of the ATP Synthase Eliminates the Intrinsic Resistance of Staphylococcus aureus towards Polymyxins” (mBio, 2017).
Converted amounts (≈) assume the structure as drawn.

Tests used:
Assay in all cases: microbe, parasite or virus in culture
[1] = tested on: S. aureus JE2 (wild type); details: 22 h; for MIC, WT: conventional antibiotics (Table 3), Etest on TSA, 37°C, WT JE2; for MIC: Staphylococcus aureus, read-out: MIC, WT
Text: (§1) Staphylococcus aureus is intrinsically resistant to the clinically approved cationic antimicrobial peptides polymyxin B (PMB) and colistin ([1], [16]). […] The MIC for PMB was subsequently determined using Etests for the identified mutants.
(§2) The strains used in this study include S. aureus strain JE2 (plasmid-cured derivative of USA300 LAC) and all derivative strains within the Nebraska Transposon Mutant Library (NTML), consisting of 1,920 unique transposon mutants with inactivation of nonessential genes ([15]). The bursa aurealis transposon used to create the collection contains the resistance cassette ermB, which confers resistance to erythromycin ([15]). Additionally we used S. aureus SA113 and two derivatives, SA113 ΔdltA ([9]) and SA113 ΔmprF ([10]). All bacterial strains were cultured at 37°C in tryptic soy broth (TSB) or on tryptic soy agar (TSA), with antimicrobial agents added as indicated. Two methods have been employed to determine MICs to various antimicrobial agents. (i) A 2-fold broth microdilution assay in TSB (100 µl) with an initial inoculum of approximately 5 × 10^5 cells/ml was employed to determine the MICs of polymyxin B sulfate (Sigma), gallidermin (Santa Cruz Biotechnology), nisin (Sigma), bacitracin (Sigma), and LL-37 (Isca Biochemicals). […] The MIC was determined upon incubation at 37°C for 22 h. […]

[2] = tested on: S. aureus JE2 atpA transposon mutant (SAUSA300_2060); details: for MIC, atpA: conventional antibiotics (Table 3), Etest on TSA, 37°C, atpA mutant
Text: as §1, §2

[3] = tested on: S. aureus JE2 graR transposon mutant (SAUSA300_0645); details: for MIC, graR: conventional antibiotics (Table 3), Etest on TSA, 37°C, graR mutant
Text: as §1, §2

[4] = tested on: S. aureus JE2 vraF transposon mutant (SAUSA300_0647); details: for MIC, vraF: conventional antibiotics (Table 3), Etest on TSA, 37°C, vraF mutant
Text: as §1, §2

[5] = tested on: S. aureus JE2 vraG transposon mutant (SAUSA300_0648); details: for MIC, vraG: conventional antibiotics (Table 3), Etest on TSA, 37°C, vraG mutant
Text: as §1, §2

SMILES | MIC, WT [1] | MIC, atpA ([2]; 22 h) | MIC, graR ([3]; 22 h) | MIC, vraF ([4]; 22 h) | MIC, vraG ([5]; 22 h) | MIC [1] | also measured
CCCCCCCCCC(=O)N[C@@H](Cc1c[nH]c2ccccc12)C(=O)N[C@H](CC(N)=O)C(=O)N[C@@H](CC(=O)O)C(=O)N[C@@H]1C(=O)NCC(=O)N[C@@H](CCCN)C(=O)N[C@@H](CC(=O)O)C(=O)N[C@H](C)C(=O)N[C@@H](CC(=O)O)C(=O)NCC(=O)N[C@H](CO)C(=O)N[C@@H]([C@H](C)CC(=O)O)C(=O)N[C@@H](CC(=O)c2ccccc2N)C(=O)O[C@@H]1C [Daptomycin, daptomycin] | 0.25 µg/mL (≈ 0.154 µM) | 0.250 µg/mL (≈ 0.154 µM) | 0.19 µg/mL (≈ 0.117 µM) | 0.25 µg/mL (≈ 0.154 µM) | 0.25 µg/mL (≈ 0.154 µM) | – | –
CNC(C)C1CCC(N)C(OC2C(N)CC(N)C(OC3OCC(C)(O)C(NC)C3O)C2O)O1 (stereo not drawn) [Gentamicin, gentamicin] | – | – | – | – | – | 1.5 µg/mL (≈ 3.14 µM) | MIC ([2]; Staphylococcus aureus, 22 h, read-out: MIC, atpA): 0.094 µg/mL (≈ 0.197 µM); fold reduction in MIC / increased sensitivity relative to WT ([2]; {}): 16 fold; MIC ([3]; Staphylococcus aureus, 22 h, read-out: MIC, graR): 0.5 µg/mL (≈ 1.05 µM); fold reduction in MIC / increased sensitivity relative to WT ([3]; {}): 3-6 fold; MIC ([4]; Staphylococcus aureus, 22 h, read-out: MIC, vraF): 0.38 µg/mL (≈ 0.796 µM); fold reduction in MIC / increased sensitivity relative to WT ([4]; {}): 3-6 fold; MIC ([5]; Staphylococcus aureus, 22 h, read-out: MIC, vraG): 0.25 µg/mL (≈ 0.523 µM); fold reduction in MIC / increased sensitivity relative to WT ([5]; {}): 3-6 fold
CC(=O)NC[C@H]1CN(c2ccc(N3CCOCC3)c(F)c2)C(=O)O1 [Linezolid, linezolid] | – | – | – | – | – | 2 µg/mL (≈ 5.93 µM) | –
Cc1onc(-c2ccccc2)c1C(=O)N[C@@H]1C(=O)N2[C@@H]1SC(C)(C)[C@@H]2C(=O)O [Oxacillin, oxacillin] | – | – | – | – | – | 0.5 µg/mL (≈ 1.25 µM) | –
CN[C@H](CC(C)C)C(=O)N[C@H]1C(=O)N[C@@H](CC(N)=O)C(=O)N[C@H]2C(=O)N[C@H]3C(=O)N[C@H](C(=O)N[C@H](C(=O)O)c4cc(O)cc(O)c4-c4cc3ccc4O)[C@H](O)c3ccc(c(Cl)c3)Oc3cc2cc(c3O[C@@H]2O[C@H](CO)[C@@H](O)[C@H](O)[C@H]2O[C@H]2C[C@](C)(N)[C@H](O)[C@H](C)O2)Oc2ccc(cc2Cl)[C@H]1O [Vancomycin, vancomycin] | 1.5 µg/mL (≈ 1.04 µM) | 1.500 µg/mL (≈ 1.04 µM) | 1 µg/mL (≈ 0.69 µM) | 0.75 µg/mL (≈ 0.518 µM) | 1 µg/mL (≈ 0.69 µM) | – | –
